Series [1] can be described thus: Absorption rate constant in epithelial lining fluid of Swiss-Webster mouse infected with Pseudomonas aeruginosa at 200 mg/kg, ip administered as single dose. The series is classed as ADME, organism-based. The conditions noted are these: in vivo. Also on record: dose 200 mg/kg, route intraperitoneal.
Series [2] is described as follows: Volume of distribution in epithelial lining fluid of Swiss-Webster mouse infected with Pseudomonas aeruginosa at 200 mg/kg, ip administered as single dose. The series is classed as ADME, organism-based. Also on record: dose 200 mg/kg, route intraperitoneal. Particulars: in vivo.
A short description of series [3]: AUC in plasma of Swiss-Webster mouse infected with Pseudomonas aeruginosa at 200 mg/kg, ip administered as single dose. The series is classed as ADME, organism-based. Also on record: dose 200 mg/kg, route intraperitoneal.
Series [4] can be described thus: Apparent clearance in epithelial lining fluid of Swiss-Webster mouse infected with Pseudomonas aeruginosa at 200 mg/kg, ip administered as single dose.
Series [5] in a line: Drug uptake in epithelial lining fluid of Swiss-Webster mouse infected with Pseudomonas aeruginosa at 200 mg/kg, ip administered as single dose. Also on record: dose 200 mg/kg, route intraperitoneal. The conditions noted are these: in vivo. The series is classed as ADME, organism-based.
Series [6] is described as follows: AUC in epithelial lining fluid of Swiss-Webster mouse infected with Pseudomonas aeruginosa at 200 mg/kg, ip administered as single dose. The series is classed as ADME, organism-based. Also on record: dose 200 mg/kg, route intraperitoneal.
Series [7] relates to Pseudomonas aeruginosa. The series can be described thus: Antimicrobial activity against Pseudomonas aeruginosa infected in Swiss-Webster mouse at 200 mg/kg, ip administered as single dose. The series is classed as functional, organism-based. Also on record: dose 200 mg/kg, route intraperitoneal.
Series [8] is described as follows: Apparent volume of distribution with respect to bioavailability in epithelial lining fluid of Swiss-Webster mouse infected with Pseudomonas aeruginosa at 200 mg/kg, ip administered as single dose. The conditions noted are these: read-out: Vc/F. The series is classed as ADME, organism-based.

Regarding `C[C@H]1COc2c(N3CCN(C)CC3)c(F)cc3c(=O)c(C(=O)O)cn1c23.C[C@H]1COc2c(N3CCN(C)CC3)c(F)cc3c(=O)c(C(=O)O)cn1c23.O` [LEVOFLOXACIN], in series [1], the Ka came out at 7.81 h⁻¹. The molecule further showed a Vd in series [2] of 0.024 L. Moreover, the AUC in series [3] was 64000 ng·h/mL; in series [6], 49800 ng·h/mL. In addition, the CL/F in series [4] is 1.3 mL/min. In series [5], the Drug uptake amounted to 77.7%. Also, the EC50 in series [7] is 3.15 µg/mL. Also, the Vd/F in series [8] is 0.044 L.

The values above are taken from ChEMBL document CHEMBL1649474, “Pharmacodynamics of levofloxacin in a murine pneumonia model of Pseudomonas aeruginosa infection: determination of epithelial lining fluid targets” (Antimicrob Agents Chemother, 2009).
